The values that follow come from paper PMC8269107, “Lipidation of Temporin-1CEb Derivatives as a Tool for Activity Improvement, Pros and Cons of the Approach” (International Journal of Molecular Sciences, 2021).

Where a SMILES comes first, the peptide text is derived from it. The star is where a group is joined. Lauroyl = CCCCCCCCCCCC(=O)*

In this test the test system is S. aureus. Briefly: LIVE/DEAD BacLight bacterial viability. Particulars: 0.39-25 µg/mL, 3 and 6 h of co-incubation. It counts as cell-based, Staphylococcus aureus. As to the method:
Evaluation of the bacterial viability in the presence or absence of the tested compounds was performed according to the protocols developed for the laboratory kit LIVE/DEAD ®® BacLight TM Bacterial Viability Kits (Molecular Probes Europe BV, Amsterdam, The Netherlands). Briefly, late log phase cultures of E. coli and S. aureus in Luria-Bertani broth were harvested by centrifugation at 4000× g, the supernatant was removed, and pellets were resuspended in sterile water solution of 0.85% NaCl. Again, bacterial cells were centrifuged under the same conditions. In order to remove traces of growth, the medium washing step was repeated twice. At the end, pellets were resuspended in a fresh sterile 0.85% NaCl solution and diluted, yielding suspensions of E. coli, containing about 2 × 10^8 CFU/mL, and S. aureus with about 2 × 10^7 CFU/mL. Subsequently, 90 µL of bacterial suspensions (E. coli or S. aureus, respectively) were transferred to 96-well microtiter plates and 10 µL of the tested peptides were added to final concentrations ranging from 0.39 µg/mL to 25 µg/mL. […] Fluorescence was read with excitation wavelength set at 485 nm and emission wavelengths set at 530 nm (for green dye) and 630 nm (red dye) by means of CLARIOstar®® plate reader (BMG LABTECH, Germany).

For `CCCCCCCCCCCC(=O)N[C@H](C(=O)N[C@@H](CCCCN)C(=O)N[C@@H](CCCCN)C(=O)N[C@H](C(=O)N[C@@H](CC(C)C)C(=O)N[C@@H](CO)C(=O)N[C@@H](CCCCN)C(=O)N[C@H](C(=O)N[C@@H](CCCCN)C(=O)N[C@@H](CCCCN)C(=O)N[C@@H](CC(C)C)C(=O)N[C@@H](CC(C)C)C(N)=O)[C@@H](C)CC)[C@@H](C)CC)[C@@H](C)CC` [Compound C12-DK5] (Lauroyl-IKKILSKIKKLL-NH2), the “relative viability of S. aureus (live/dead)” value is listed as “most active”.
